Results as given in US20250074911A1, “MACROCYCLIC BTK INHIBITORS” (Crossfire Oncology Holding B.V., priority 2021, published 2025).
Values joined by “and” are separate entries in the source; they are usually repeats but may differ in a detail not shown here. Equal values may be shown once.

Columns and labels:
[1] = target: full-length BTK C481S enzyme (Homo sapiens (Human), UniProt Q06187, C481S); assay: Biochemical kinase assay BTK C481S (IMAP)
Summary of the method: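 Full-length BTK C481S (1.2 nM) was pre-incubated with compound for 1 h at room temperature in the dark, then reacted with fluorescein-labelled MBP-derived peptide (50 nM) and ATP (7 μM) for 2 h. Reactions were quenched with IMAP binding solution, and IC50 values were derived from fluorescence polarization.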

[2] = target: full-length wt-BTK enzyme (Homo sapiens (Human), UniProt Q06187); assay: Biochemical kinase assay wt-BTK (IMAP)
full-length wt-BTK enzyme, sequence (Q06187 whole entry): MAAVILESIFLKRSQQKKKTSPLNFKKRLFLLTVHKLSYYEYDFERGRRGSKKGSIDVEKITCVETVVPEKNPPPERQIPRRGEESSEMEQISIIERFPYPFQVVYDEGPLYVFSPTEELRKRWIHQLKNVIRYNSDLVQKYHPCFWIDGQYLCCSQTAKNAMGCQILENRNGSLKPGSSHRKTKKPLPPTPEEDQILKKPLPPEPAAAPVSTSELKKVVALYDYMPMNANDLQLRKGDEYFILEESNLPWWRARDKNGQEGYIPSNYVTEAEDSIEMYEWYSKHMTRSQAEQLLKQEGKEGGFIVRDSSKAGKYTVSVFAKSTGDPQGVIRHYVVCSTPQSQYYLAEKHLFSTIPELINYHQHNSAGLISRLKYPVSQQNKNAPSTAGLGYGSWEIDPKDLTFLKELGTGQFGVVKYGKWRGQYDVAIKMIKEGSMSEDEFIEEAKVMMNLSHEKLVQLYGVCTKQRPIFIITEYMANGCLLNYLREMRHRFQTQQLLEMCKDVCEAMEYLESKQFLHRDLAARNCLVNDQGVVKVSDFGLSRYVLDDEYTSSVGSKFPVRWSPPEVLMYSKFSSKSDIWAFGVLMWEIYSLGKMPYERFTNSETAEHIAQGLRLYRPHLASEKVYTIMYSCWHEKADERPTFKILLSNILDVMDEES
Summary of the method: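 IMAP fluorescence polarization assay: 1.2 nM enzyme pre-incubated 1 h with compound at room temperature, then 50 nM fluorescein-labeled MBP-derived peptide and 4 μM ATP added. Reaction ran 2 h at room temperature in the dark before quenching with IMAP binding solution.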

BTK T316A = BTK T316A (Homo sapiens (Human), UniProt Q06187, T316A); assay: Binding kinetics measurements (Surface Plasmon Resonance) on BTK T316A; details: for Kd: binding affinity by Surface Plasmon Resonance (SPR); for Tau (h) BTK T316A (Act): target residence time, SPR
BTK T316A, sequence (Q06187 whole entry T316A): as the sequence (Q06187 whole entry) above, with T316A counted along it
Experimental: (§1) Binding kinetics measurements on wt-BTK, BTK […], BTK […], BTK […] and BTK […] (Surface Plasmon Resonance) Streptavidin-coated chips (Cat. No. BR100531), disposables and maintenance kits for Biacore were purchased from Cytiva (Eindhoven, The Netherlands). […] Remaining streptavidin was blocked with biocytin. Immobilization was performed at 4° C. Subsequent assay steps were conducted at 22° C. After changing buffer to Biacore buffer with 1% (v/v) dimethylsulfoxide (DMSO), a pre-run was performed for a period of at least 30 min at a flow rate of 30 μl/min to obtain a stable surface. The kinetic constants of the compounds were determined with single cycle kinetics with five consecutive injections with an increasing compound concentration with ranges of 3.16-316 nM. […] To circumvent problems of mass transport limitation, a flow rate of 30 μl/min was used. A blank run with the same conditions was performed before the compound was injected. The SPR sensorgrams were analyzed with Biacore Evaluation Software by using a method of double referencing. First the reference channel was subtracted from the channel containing immobilized protein. Subsequently, the reference curve obtained with buffer injections was subtracted. […] Compounds that bound according to an induced fit model were fitted with a two-state reaction model. The kinetic constants (ka, […], KD) of duplicates were geometrically averaged. […] Target residence for an induced fit model was calculated as described (Tummino and Copeland, 2008).

wt-BTK = wt-BTK (Homo sapiens (Human), UniProt Q06187); assay: Binding kinetics measurements (Surface Plasmon Resonance) on wt-BTK; details: for Kd: binding affinity by Surface Plasmon Resonance (SPR); for Tau (h) wt-BTK (Act): target residence time, SPR
wt-BTK, sequence (Q06187 whole entry): as the sequence (Q06187 whole entry) above
Experimental: as §1

BTK T474I = BTK T474I (Homo sapiens (Human), UniProt Q06187, T474I); assay: Binding kinetics measurements (Surface Plasmon Resonance) on BTK T474I; details: for Kd: binding affinity by Surface Plasmon Resonance (SPR); for Tau (h) BTK T474I (Act): target residence time, SPR
BTK T474I, sequence (Q06187 whole entry T474I): as the sequence (Q06187 whole entry) above, with T474I counted along it
Experimental: as §1

BTK C481S = BTK C481S (Homo sapiens (Human), UniProt Q06187, C481S); assay: Binding kinetics measurements (Surface Plasmon Resonance) on BTK C481S; details: for Kd: binding affinity by Surface Plasmon Resonance (SPR); for Tau (h) BTK C418S (Act): target residence time for BTK C481S, SPR
BTK C481S, sequence (Q06187 whole entry C481S): as the sequence (Q06187 whole entry) above, with C481S counted along it
Experimental: as §1

[3] = test system: wt-REC-1 mantle cell lymphoma cells; assay: Cell proliferation assay wt-REC-1 (ATPlite, 72 hours); assay type: cell-based; details: 72 h; read-out: IC50 wt-REC-1
Summary of the method: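 Luminescent viability read over 72 h, start-of-incubation signal recorded separately to separate growth from cell death. Percentage growth referenced to compound-free 0.3% DMSO wells; IC50 from 4-parameter logistic fit.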

[4] = test system: wt-TMD8 diffuse large B-cell lymphoma cells; assay: Cell proliferation assay wt-TMD8 (ATPlite, 120 hours); assay type: cell-based; details: B-cell; wt-TMD8 cells, 120 hours, ATPlite; read-out: IC50 wt-TMD8
Summary of the method: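 wt-TMD8 DLBCL cells, 1600 per well in RPMI-1640 with 10% FBS, rested ≥5 h then exposed to compound for 120 h at 37° C, 5% CO2. Viability read by ATPlite luminescence; percentage growth calculated relative to start-of-incubation signal and untreated 0.3% DMSO maximum growth.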

REC-1 T474I cell lines = assay: Cell proliferation assay REC-1 BTK T474I knock-in cells (ATPlite, 72 hours); assay type: cell-based; details: Homo sapiens, Rec1; 72 hours; read-out: IC50 REC-1 T474I
Summary of the method: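 REC-1 cells carrying CRISPR knock-in mutant BTK, single-cell cloned and sequence-confirmed, were exposed to compound for 72 h and read by ATPlite luminescence. Percentage growth was calculated against the signal at the start of incubation and against untreated 0.3% DMSO wells as maximum growth.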

BTK T474S = BTK T474S (Homo sapiens (Human), UniProt Q06187, T474S); assay: Binding kinetics measurements (Surface Plasmon Resonance) on BTK T474S; details: for residence time: SPR binding kinetics, BTK T474S, read-out: Tau (h) BTK T474S (Act), target residence time (converted); for Kd: binding affinity by Surface Plasmon Resonance (SPR)
BTK T474S, sequence (Q06187 whole entry T474S): as the sequence (Q06187 whole entry) above, with T474S counted along it
Experimental: as §1

full-length BTK C481S enzyme, sequence (Q06187 whole entry C481S): as the sequence (Q06187 whole entry) above, with C481S counted along it

Row | Structure (SMILES) | IC50 [1] [nM] | IC50 [2] [nM] | Kd (BTK T316A) [nM] | Tau (h) BTK T316A (Act) (BTK T316A) [h] | Kd (wt-BTK) [nM] | Tau (h) wt-BTK (Act) (wt-BTK) [h] | Kd (BTK T474I) | Tau (h) BTK T474I (Act) (BTK T474I) [h] | Kd (BTK C481S) [nM] | Tau (h) BTK C418S (Act) (BTK C481S) [h] | IC50 [3] [nM] | IC50 [4] [nM] | IC50 (REC-1 T474I cell lines) [nM] | residence time (BTK T474S) [h] | Kd (BTK T474S) [nM]
1 | Nc1ncc2c3c1c(-c1ccc(C(=O)Nc4cc(C(F)(F)F)ccn4)cc1)nn3[C@@H]1CCC[C@H](C1)C(=O)NCCCC/C=C/2 [Example 1] | < 5 | < 5 | < 5 | 2.99 | < 5 | 8.77 | < 2 nM | 0.92 | < 5 | 1.24 | < 100 | < 100 | < 100 | – | –
2 | Nc1ncc2c3c1c(-c1ccc(C(=O)Nc4cc(C(F)(F)F)ccn4)cc1)nn3[C@@H]1CCC[C@H](C1)C(=O)NCCCCC/C=C/2 [Example 2] | < 5 | < 5 | < 5 | 16.05 | < 5 | 4.47 | < 2 nM | 3.61 | – | – | < 100 | < 100 | < 100 | – | –
3 | Nc1ncc2c3c1c(-c1ccc(C(=O)Nc4cc(C(F)(F)F)ccn4)cc1)nn3[C@@H]1CCC[C@H](C1)NC(=O)CCCC[C@H](O)/C=C/2 [Example 11] | < 5 | < 5 | < 5 | 6.42 | < 5 | 5.48 | < 2 nM | 1.93 | – | – | < 100 | < 100 | 100 to 500 | 4.3 | < 3
4 | COc1ccc(F)cc1C(=O)NCc1ccc(-c2nn3c4c(cnc(N)c24)/C=C/COCC(=O)N[C@@H]2CCC[C@@H]3C2)cc1 [Example 52] | < 5 | < 5 | – | – | < 5 | – | 10 to 50 nM and < 5 nM | – | – | – | 100 to 1000 | < 100 | 500 to 10000 | 1.35 | < 3
5 | Nc1ncc2c3c1c(-c1ccc(C(=O)Nc4cc(C(F)(F)F)ccn4)cc1)nn3[C@@H]1CCC[C@H](C1)C(=O)NCCCCC/C=C\C2 [Example 89b] | < 5 | < 5 | < 5 | 3.12 | – | – | 10 to 50 nM and < 5 nM | 0.64 | < 5 | 6.69 | < 100 | – | – | – | –
6 | C[C@H]1CC(=O)N[C@@H]2CCC[C@H](C2)n2nc(-c3ccc(C(=O)Nc4cc(C(F)(F)F)ccn4)cc3)c3c(N)ncc(c32)/C=C/CCO1 [Example 156] | < 5 | < 5 | – | 1.05 | – | – | 10 to 50 nM and < 5 nM | – | – | – | < 100 | < 100 | < 100 | 1.06 | < 3
7 | N#Cc1ccnc(NC(=O)c2ccc(-c3nn4c5c(cnc(N)c35)/C=C/CCN3CC[C@H]3C(=O)N[C@@H]3CCC[C@@H]4C3)cc2)c1 [Example 165] | < 5 | < 5 | – | 6.98 | – | 3.24 | – | – | – | 1.61 | < 100 | < 100 | < 100 | – | –
8 | Nc1ncc2c3c1c(-c1ccc(C(=O)Nc4cc(C(F)(F)F)ccn4)cc1)nn3[C@@H]1CC[C@H](C1)NC(=O)[C@@H]1CCN1CC/C=C/2 [Example 174] | < 5 | < 5 | – | 4.98 | – | 1.35 | – | 0.77 | < 5 | 3.56 | < 100 | < 100 | < 100 | – | –
9 | C[C@@H]1CC(=O)N[C@@H]2CCC[C@H](C2)c2nc(-c3ccc(C(=O)Nc4cc(C(F)(F)F)ccn4)cc3)c3c(N)ncc(n23)/C=C/CCN1 [Example 179] | < 5 | < 5 | – | – | – | 7.36 | < 2 nM | 1.14 | < 5 | 4.06 | < 100 | < 100 | 100 to 500 | 3.01 | –
10 | C[C@@H]1CC(=O)N[C@@H]2CCC[C@H](C2)n2nc(-c3ccc(C(=O)Nc4cc(C#N)ccn4)cc3)c3c(N)ncc(c32)/C=C/CCN1 [Example 180] | < 5 | < 5 | – | – | – | 7.42 | < 2 nM | 1.16 | – | – | < 100 | < 100 | 100 to 500 | 7.27 | –
11 | C[C@@H]1CC(=O)N[C@@H]2CC[C@H](C2)n2nc(-c3ccc(C(=O)Nc4cc(C#N)ccn4)cc3)c3c(N)ncc(c32)/C=C/CCN1 [Example 181] | < 5 | < 5 | – | – | – | 2.95 | – | – | – | – | < 100 | < 100 | 500 to 10000 | 5.65 | –
12 | N#Cc1ccnc(NC(=O)c2ccc(-c3nn4c5c(cnc(N)c35)/C=C/CCCCCC(=O)N[C@@H]3CC[C@@H]4C3)cc2)c1 [Example 182] | < 5 | < 5 | – | – | – | 2.96 | – | 1.07 | – | – | < 100 | < 100 | < 100 | 1.03 | –
13 | N#Cc1ccnc(NC(=O)c2ccc(-c3nn4c5c(cnc(N)c35)/C=C/COCCC(=O)N[C@@H]3CC[C@@H]4C3)cc2)c1 [Example 183] | < 5 | < 5 | – | – | – | >24 | – | >24 | < 5 | 4.15 | < 100 | < 100 | < 100 | > 24 | < 5
14 | COc1ccc(F)cc1C(=O)NCc1ccc(-c2nn3c4c(cnc(N)c24)/C=C/CCCCCC(=O)N[C@@H]2CCC[C@@H]3C2)cc1 [Example 187] | < 5 | < 5 | – | – | – | 18.83 | – | 2.13 | – | – | < 100 | < 100 | 100 to 500 | 13.6 | < 5
15 | N#Cc1ccnc(NC(=O)c2ccc(-c3nc4n5c(cnc(N)c35)/C=C/COCCC(=O)N[C@@H]3CCC[C@@H]4C3)cc2)c1 [Example 200] | < 5 | < 5 | – | – | – | 2.12 | – | 0.77 | – | 2.23 | < 100 | < 100 | 500 to 10000 | – | –
16 | Nc1ncc2n3c(nc(-c4ccc(C(=O)Nc5cc(C(F)(F)F)ccn5)cc4)c13)[C@@H]1CC[C@H](C1)NC(=O)CCOCC/C=C/2 [Example 202] | < 5 | < 5 | – | – | – | 2.20 | – | 2.16 | – | 3.15 | < 100 | < 100 | < 100 | – | –
17 | C[C@@H]1CC(=O)N[C@@H]2CC[C@H](C2)c2nc(-c3ccc(C(=O)Nc4cc(C(F)(F)F)ccn4)cc3)c3c(N)ncc(n23)/C=C/CCN1 [Example 207] | < 5 | < 5 | – | – | < 5 | 2.55 | < 2 nM | – | < 5 | 8.44 | < 100 | < 100 | 500 to 10000 | – | –
